Measurements published in paper PMC6562117, “The role of the tyrosine kinase Wzc (Sll0923) and the phosphatase Wzb (Slr0328) in the production of extracellular polymeric substances (EPS) by Synechocystis PCC 6803” (MicrobiologyOpen, 2019).

How the values were obtained:
Wzb (Slr0328); His6-Wzb = target: T1, Wzb (Slr0328); His6-Wzb (Synechocystis sp. PCC 6803, UniProt Q55535); experiment: continuous p-nitrophenol release at […] nm; type: biochemical; conditions: 10 mM pNPP, 100 mM sodium citrate pH 6.5, 1 mM EDTA, 0.1% beta-mercaptoethanol, 30 C
T1 construct: one monomer in the asymmetric unit
T1 sequence (Q55535 whole entry): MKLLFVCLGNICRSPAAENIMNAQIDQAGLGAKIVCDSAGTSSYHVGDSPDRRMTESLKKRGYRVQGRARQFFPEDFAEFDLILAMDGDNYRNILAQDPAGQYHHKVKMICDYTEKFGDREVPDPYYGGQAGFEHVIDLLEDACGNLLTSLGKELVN

Wzc (Sll0923); His6-Wzc = target: T2, Wzc (Sll0923); His6-Wzc (Synechocystis sp. PCC 6803, UniProt P72877); experiment: ATP consumption by luciferase bioluminescence (ENLITEN); type: biochemical; conditions: 25 mM Tris-HCl pH 7.0, 1 mM DTT, 5 mM MgCl2, 30 C, 45 min; heat-inactivated Wzc as control
T2 construct: gene epsB
T2 sequence (P72877 entry or part of it): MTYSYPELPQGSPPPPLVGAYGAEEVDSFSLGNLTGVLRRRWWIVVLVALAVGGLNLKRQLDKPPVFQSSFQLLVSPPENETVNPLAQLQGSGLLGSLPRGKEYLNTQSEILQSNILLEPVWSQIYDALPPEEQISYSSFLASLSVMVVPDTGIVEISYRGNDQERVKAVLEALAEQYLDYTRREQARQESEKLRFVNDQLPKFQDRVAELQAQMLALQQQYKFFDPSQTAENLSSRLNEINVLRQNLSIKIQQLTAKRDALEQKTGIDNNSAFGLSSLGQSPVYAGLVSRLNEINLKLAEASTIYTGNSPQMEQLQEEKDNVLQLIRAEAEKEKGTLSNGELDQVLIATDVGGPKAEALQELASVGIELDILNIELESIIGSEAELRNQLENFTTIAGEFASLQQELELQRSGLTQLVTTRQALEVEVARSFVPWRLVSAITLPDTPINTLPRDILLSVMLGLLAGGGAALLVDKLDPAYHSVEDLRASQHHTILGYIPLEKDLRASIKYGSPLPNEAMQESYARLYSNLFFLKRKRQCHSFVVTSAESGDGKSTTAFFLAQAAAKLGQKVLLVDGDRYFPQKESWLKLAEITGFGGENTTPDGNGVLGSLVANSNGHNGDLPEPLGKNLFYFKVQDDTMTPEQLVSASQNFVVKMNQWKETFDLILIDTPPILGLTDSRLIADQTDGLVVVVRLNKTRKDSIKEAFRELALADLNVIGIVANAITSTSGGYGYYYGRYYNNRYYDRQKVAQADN

Row | SMILES | continuous p-nitrophenol release at 405 nm (Wzb (Slr0328); His6-Wzb) | ATP consumption by luciferase bioluminescence (ENLITEN) (Wzc (Sll0923); His6-Wzc)
1 | O=[N+]([O-])c1ccc(OP(=O)(O)O)cc1 [p-nitrophenyl phosphate] | we first used a p‐nitrophenyl phosphate hydrolysis assay to confirm that Wzb functions as a phosphatase | 
2 | Nc1ncnc2c1ncn2[C@@H]1O[C@H](COP(=O)(O)OP(=O)(O)OP(=O)(O)O)[C@@H](O)[C@H]1O [ATP] |  | Wzc is capable of ATP binding and hydrolysis
